≈ marks a conversion by molar mass, not a printed value.
What was measured:
[1] = system: M. suipneumoniae NB12; assay: Anti-mycoplasmal activity in vitro MIC; assay type: cell-based; details: Mesomycoplasma hyopneumoniae, 144 h; M. suipneumoniae NB12; Friis broth, 0.9% agarose, 6 days 37° C.; read-out: M.I.C.
[2] = system: M. suipneumoniae JF 435; assay: Anti-mycoplasmal activity in vitro MIC; assay type: cell-based; details: Mesomycoplasma hyopneumoniae, JF435, 144 h; M. suipneumoniae JF 435; Friis broth, 0.9% agarose, 6 days 37° C.; read-out: M.I.C.
[3] = system: M. suipneumoniae HK (2); assay: Anti-mycoplasmal activity in vitro MIC; assay type: cell-based; details: Mesomycoplasma hyopneumoniae, 144 h
[4] = system: M. suipneumoniae Str. 11; assay: Anti-mycoplasmal activity in vitro MIC; assay type: cell-based; details: Mesomycoplasma hyopneumoniae, 144 h; M. suipneumoniae Str. 11; Friis broth, 0.9% agarose, 6 days 37° C.; read-out: M.I.C.
[5] = system: M. suipneumoniae J2206/183b; assay: Anti-mycoplasmal activity in vitro MIC; assay type: cell-based; details: Mesomycoplasma hyopneumoniae, J2206/183B, 144 h
[6] = system: M. suipneumoniae PW/C/210; assay: Anti-mycoplasmal activity in vitro MIC; assay type: cell-based; details: Mesomycoplasma hyopneumoniae, 144 h; M. suipneumoniae PW/C/210; Friis broth, 0.9% agarose, 6 days 37° C.; read-out: M.I.C.
[7] = system: M. suipneumoniae LABER; assay: Anti-mycoplasmal activity in vitro MIC; assay type: cell-based; details: Mesomycoplasma hyopneumoniae, 144 h; M. suipneumoniae LABER; Friis broth, 0.9% agarose, 6 days 37° C.; read-out: M.I.C.
[8] = system: M. suipneumoniae UCD 1; assay: Anti-mycoplasmal activity in vitro MIC; assay type: cell-based; details: Mesomycoplasma hyopneumoniae, UCD1, 144 h
[9] = system: M. suipneumoniae ATCC 25095; assay: Anti-mycoplasmal activity in vitro MIC; assay type: cell-based; details: Mesomycoplasma hyopneumoniae, ATCC25095, 144 h; M. suipneumoniae ATCC 25095; Friis broth, 0.9% agarose, 6 days 37° C.; read-out: M.I.C.
[10] = system: M. suipneumoniae NCTC 10110; assay: Anti-mycoplasmal activity in vitro MIC; assay type: cell-based; details: Mesomycoplasma hyopneumoniae, NCTC10110, 144 h; M. suipneumoniae NCTC 10110; Friis broth, 0.9% agarose, 6 days 37° C.; read-out: M.I.C.
[11] = system: M. hyorhinis ATCC 23234; assay: Anti-mycoplasmal activity in vitro MIC; assay type: cell-based; details: Mesomycoplasma hyorhinis, ATCC23234, 144 h
[12] = system: M. hyorhinis ATCC 25021; assay: Anti-mycoplasmal activity in vitro MIC; assay type: cell-based; details: Mesomycoplasma hyorhinis, ATCC25021, 144 h
[13] = system: M. hyosynoviae ATCC 25591; assay: Anti-mycoplasmal activity in vitro MIC; assay type: cell-based; details: 144 h
[14] = system: M. bovis NCTC 10131; assay: microbe, parasite or virus in culture; assay type: cell-based; details: NCTC10131, 144 h
[15] = system: M. bovigenitalium ATCC 14173; assay: Anti-mycoplasmal activity in vitro MIC; assay type: cell-based; details: 144 h
[16] = system: M. dispar NCTC 10125; assay: Anti-mycoplasmal activity in vitro MIC; assay type: cell-based; details: 144 h
[17] = system: M. gallisepticum S6; assay: Anti-mycoplasmal activity in vitro MIC; assay type: cell-based; details: Mycoplasmoides gallisepticum, S6, 144 h
[18] = system: M. pneumoniae ATCC 15492; assay: Anti-mycoplasmal activity in vitro MIC; assay type: cell-based; details: Mycoplasmoides pneumoniae, ATCC15492, 144 h
[19] = system: Corneybacterium xerosis 9755; assay: Human bacteria MIC; assay type: cell-based; details: 18 h
Experimental: (§1) The values were determined by serial dilutions in nutrient agar with 5% chocolated horse blood after incubations for 18 hours at 37° C.

[20] = system: E. Coli NCT 10418; assay: Human bacteria MIC; assay type: cell-based; details: Escherichia coli, 18 h
Experimental: as §1

[21] = system: Haemophilus influenzae Q1; assay: Human bacteria MIC; assay type: cell-based; details: Haemophilus influenzae, Q1, 18 h
Experimental: as §1

[22] = system: Haemophilus influenzae Wy21; assay: Human bacteria MIC; assay type: cell-based; details: Haemophilus influenzae, WY21, 18 h
Experimental: as §1

[23] = system: Pasteurella multocida 1633; assay: Human bacteria MIC; assay type: cell-based; details: Pasteurella multocida, 1633, 18 h
Experimental: as §1

[24] = system: Staph. aureus Russell; assay: Human bacteria MIC; assay type: cell-based; details: Staphylococcus aureus, 18 h
Experimental: as §1

[25] = system: Strep. faecalis I; assay: Human bacteria MIC; assay type: cell-based; details: Enterococcus faecalis, nutrient agar, 5% chocolated horse blood, 18 hours 37° C.
Experimental: as §1

[26] = system: Strep. pyogenes R80/421; assay: Human bacteria MIC; assay type: cell-based; details: Streptococcus pyogenes, R80/421, 18 h
Experimental: as §1

[27] = Serum binding by ultrafiltration; assay type: in vitro ADME; details: pig, porcine serum, 8 mcg/ml, read-out: % bound to pig serum (converted)
Experimental: Serum binding was assessed by ultrafiltration of porcine serum containing compounds at 8 mcg/ml, and through an Amicon CF50A ultrafiltration cone. Separation of ultrafiltrate was achieved by centrifugation. Unbound concentrations of compound were measured in the ultrafiltrate by microbiological assay (B. subtilis ATCC 6633) against standards prepared in saline.

Structure (SMILES): C/C(=C\C(=O)OCCCCCC=NN(C)C)C[C@@H]1OC[C@H](C[C@@H]2O[C@H]2[C@@H](C)[C@H](C)O)[C@@H](O)[C@H]1O [Example 6, 6-Dimethylhydrazonohexyl monate A]
- MIC [1]: 0.5 µg/mL (≈ 1.03 µM)
- MIC [2]: 0.5 µg/mL (≈ 1.03 µM)
- MIC [3]: 1 µg/mL (≈ 2.06 µM)
- MIC [4]: 0.5 µg/mL (≈ 1.03 µM)
- MIC [5]: 1 µg/mL (≈ 2.06 µM)
- MIC [6]: 0.5 µg/mL (≈ 1.03 µM)
- MIC [7]: 0.5 µg/mL (≈ 1.03 µM)
- MIC [8]: 1 µg/mL (≈ 2.06 µM)
- MIC [9]: 0.5 µg/mL (≈ 1.03 µM)
- MIC [10]: 0.5 µg/mL (≈ 1.03 µM)
- MIC [11]: 0.25 µg/mL (≈ 0.516 µM)
- MIC [12]: 0.25 µg/mL (≈ 0.516 µM)
- MIC [13]: 0.1 µg/mL (≈ 0.206 µM)
- MIC [14]: ≤ 0.01 µg/mL
- MIC [15]: 0.025 µg/mL (≈ 0.0516 µM)
- MIC [16]: 0.25 µg/mL (≈ 0.516 µM)
- MIC [17]: 5 µg/mL (≈ 10.3 µM)
- MIC [18]: 2.5 µg/mL (≈ 5.16 µM)
- MIC [19]: > 100 µg/mL
- MIC [20]: > 100 µg/mL
- MIC [21]: 0.5 µg/mL (≈ 1.03 µM)
- MIC [22]: 0.5 µg/mL (≈ 1.03 µM)
- MIC [23]: 1 µg/mL (≈ 2.06 µM)
- MIC [24]: 0.25 µg/mL (≈ 0.516 µM)
- MIC [25]: > 100 µg/mL
- MIC [26]: 1 µg/mL (≈ 2.06 µM)
- fraction unbound [27]: 0.239

— patent publication US4362743A, “Antibacterial monic acid esters” (Beecham Group Limited, priority 1980, dated 1982)
